Assay results published in PMC6332596 (Journal of Hematology & Oncology, 2019).
Entries after “also recorded” stand apart in the source; their conditions may differ. Where two headings read alike, the source gives them in different places.

How the values were obtained:
[1] = system: VEGFR1; design: method as in PMID 28004478; conditions: cited from earlier work
[2] = system: Aurora B; design: method as in PMID 28004478; conditions: cited from earlier work
[3] = system: CSF-1R; design: method as in PMID 28004478; conditions: cited from earlier work
[4] = Pharmacokinetics of plasma chiauranib after single and multiple oral doses in patients (LC-MS/MS); format: in vivo, human
Method: Three milliliters of venous blood samples was drawn into heparinized tubes before drug administration as well as at 1, 2, 4, 6, 8, 12, 24, 48, 72, 96, 120, and 144 h post-dose. […] Three milliliters of venous blood samples was drawn into heparinized tubes before administration as well as at 1, 2, 4, 8, 12, and 24 h post the oral dose on day 28. […] Samples were centrifuged immediately at 3600×g for 10 min at 4 °C, and the plasma fractions were separated and stored at − 20 °C until analysis.
The intra- and inter-day precisions and accuracies (relative standard deviation, %RSD) were in the range of 1.75–6.33%, and − 7.88–9.00%, respectively. The extraction recovery (relative standard deviation, %RSD) was 1.32–5.16%.
Descriptive statistics were used for baseline characteristics, safety assessments, pharmacokinetic variables (including Cmax, Tmax, AUC, and t1/2) and exploratory efficacy assessments, including tumor response and time to progression. Continuous variables were summarized with means, standard deviations (SD), medians, minimums, and maximums. Categorical variables were summarized by counts and by percentage of patients in corresponding categories. P values < 0.05 were considered statistically significant. Statistical analyses were performed using SAS® v9.4 (Cary, NC).

[5] = system: human tumor xenograft models inoculated with human cancer cell lines derived from colon, lung, liver, or stomach cancers; design: method as in PMID 28004478; conditions: cited from earlier work
[6] = system: advanced solid tumor and lymphoma; experiment: Tumor response by RECIST 1.1 in patients; format: in vivo, human
Method: Tumor response was evaluated by the Response Evaluation Criteria in Solid Tumors (RECIST) version 1.1. Tumor response was assessed by computed tomography (CT) and/or magnetic resonance imaging (MRI) scans at screening and every 8 weeks (2 cycles) during the first 12 cycles.

[7] = Day28, multiple dose 10 mg once daily (n = 2)
[8] = Day28, multiple dose 20 mg once daily (n = 6)
[9] = Day28, multiple dose 35 mg once daily (n = 3)
[10] = Day28, multiple dose 50 mg once daily (n = 3)
[11] = Day28, multiple dose 65 mg once daily (n = 4)
[12] = human, plasma, oral, 10 mg, Day1, single dose 10 mg (n = 2)
[13] = human, plasma, oral, 10 mg, Day28, multiple dose 10 mg once daily (n = 2)
[14] = human, plasma, oral, 20 mg, Day1, single dose 20 mg (n = 6)
[15] = human, plasma, oral, 20 mg, Day28, multiple dose 20 mg once daily (n = 6)
[16] = human, plasma, oral, 35 mg, Day1, single dose 35 mg (n = 3)
[17] = human, plasma, oral, 35 mg, Day28, multiple dose 35 mg once daily (n = 3)
[18] = human, plasma, oral, 50 mg, Day1, single dose 50 mg (n = 3)
[19] = human, plasma, oral, 50 mg, Day28, multiple dose 50 mg once daily (n = 3)
[20] = human, plasma, oral, 65 mg, Day1, single dose 65 mg (n = 4)
[21] = human, plasma, oral, 65 mg, Day28, multiple dose 65 mg once daily (n = 4)

COc1ccc2c(Oc3ccc4c(C(=O)Nc5ccccc5N)cccc4c3)ccnc2c1 [chiauranib]
IC50 [1]: single-digit nanomolar range | IC50 [2]: single-digit nanomolar range | IC50 [3]: single-digit nanomolar range | dose dependence of plasma exposure ([4]; 10 to 65 mg, single and multiple dose): dose proportional and good linear pharmacokinetic profile | Cav [4, 7]: 174 (9) ng/mL | Ctrough [4, 7]: 122 (21) ng/mL | DF [4, 7]: 1.1 (0.4) | Cav [4, 8]: 257 (64) ng/mL | Ctrough [4, 8]: 191 (89) ng/mL | DF [4, 8]: 1.3 (0.6) | Cav [4, 9]: 490 (336) ng/mL | Ctrough [4, 9]: 330 (208) ng/mL | DF [4, 9]: 0.8 (0.4) | Cav [4, 10]: 604 (235) ng/mL | Ctrough [4, 10]: 467 (166) ng/mL | DF [4, 10]: 1.1 (0.3) | Cav [4, 11]: 1010 (492) ng/mL | Ctrough [4, 11]: 890 (662) ng/mL | DF [4, 11]: 1.5 (0.8) | median peak time ([4]; after first dose in run-in period, 10-65 mg, range from 1 to 4 h): 2 h | increase of trough plasma concentration versus after first administration ([4]; continuous once daily dosing): twofold | Cmax [4, 12]: 201 ng/mL | Tmax [4, 12]: 2 h | AUC(0-t) ([4]; human, plasma, oral, 10 mg, Day1, single dose 10 mg (n = 2), read-out: AUC0–24 h): 2000 ng·h/mL | AUC(0-t) ([4]; human, plasma, oral, 10 mg, Day1, single dose 10 mg (n = 2), read-out: AUC0–144 h): 3580 ng·h/mL | Cmax [4, 13]: 312 ng/mL | Tmax [4, 13]: 2 h | AUC(0-t) ([4]; human, plasma, oral, 10 mg, Day28, multiple dose 10 mg once daily (n = 2), read-out: AUC0–24 h): 4180 ng·h/mL | Cmax [4, 14]: 354 ng/mL | Tmax [4, 14]: 2 h | AUC(0-t) ([4]; human, plasma, oral, 20 mg, Day1, single dose 20 mg (n = 6), read-out: AUC0–24 h): 3450 ng·h/mL | AUC(0-t) ([4]; human, plasma, oral, 20 mg, Day1, single dose 20 mg (n = 6), read-out: AUC0–144 h): 6820 ng·h/mL | Cmax [4, 15]: 517 ng/mL | Tmax [4, 15]: 2 h | AUC(0-t) ([4]; human, plasma, oral, 20 mg, Day28, multiple dose 20 mg once daily (n = 6), read-out: AUC0–24 h): 6180 ng·h/mL | Cmax [4, 16]: 608 ng/mL | Tmax [4, 16]: 1 h | AUC(0-t) ([4]; human, plasma, oral, 35 mg, Day1, single dose 35 mg (n = 3), read-out: AUC0–24 h): 5760 ng·h/mL | AUC(0-t) ([4]; human, plasma, oral, 35 mg, Day1, single dose 35 mg (n = 3), read-out: AUC0–144 h): 11900 ng·h/mL | Cmax [4, 17]: 773 ng/mL | Tmax [4, 17]: 4 h | AUC(0-t) ([4]; human, plasma, oral, 35 mg, Day28, multiple dose 35 mg once daily (n = 3), read-out: AUC0–24 h): 11800 ng·h/mL | Cmax [4, 18]: 756 ng/mL | Tmax [4, 18]: 1 h | AUC(0-t) ([4]; human, plasma, oral, 50 mg, Day1, single dose 50 mg (n = 3), read-out: AUC0–24 h): 7420 ng·h/mL | AUC(0-t) ([4]; human, plasma, oral, 50 mg, Day1, single dose 50 mg (n = 3), read-out: AUC0–144 h): 16400 ng·h/mL | Cmax [4, 19]: 1120 ng/mL | Tmax [4, 19]: 2 h | AUC(0-t) ([4]; human, plasma, oral, 50 mg, Day28, multiple dose 50 mg once daily (n = 3), read-out: AUC0–24 h): 14500 ng·h/mL | Cmax [4, 20]: 1280 ng/mL | Tmax [4, 20]: 1.5 h | AUC(0-t) ([4]; human, plasma, oral, 65 mg, Day1, single dose 65 mg (n = 4), read-out: AUC0–24 h): 11000 ng·h/mL | AUC(0-t) ([4]; human, plasma, oral, 65 mg, Day1, single dose 65 mg (n = 4), read-out: AUC0–144 h): 24800 ng·h/mL | Cmax [4, 21]: 2240 ng/mL | Tmax [4, 21]: 2 h | AUC(0-t) ([4]; human, plasma, oral, 65 mg, Day28, multiple dose 65 mg once daily (n = 4), read-out: AUC0–24 h): 24200 ng·h/mL | half-life ([4]; human, plasma, oral, after first dose in run-in period, 10-65 mg, read-out: terminal half-life (t1/2) (converted)): 25.6 ± 6.73 h | activity against human tumor xenograft models [5]: broad activity | patients achieving SD among six with prior anti-angiogenic agents ([6]; 6/18 patients pretreated with anti-angiogenic agents): five | stable disease (SD) as best response ([6]; 12 of 18 patients, investigator's assessment): 66.7% | complete or partial response ([6]; 18 patients): No complete or partial responses were observed; also recorded: No partial or complete response was observed | duration of confirmed SD ([6]; one patient with DLBCL, 10 mg cohort): 596 days | change in the sum of the longest diameters of target lesions at best response ([6]; one patient with ovarian cancer (65 mg cohort)): 22.2%
